# Measured values taken from patent US4317815A, “LH-RH Antagonists” (priority 1979, dated 1982).
# *1 amine or outer side, *2 acyl side, *3 side chain or, on linkers, in order; H or OH if unused. Where a SMILES comes first, the peptide text is derived from it. [ ]: non-standard residue; d: D form. dPhe(4-Br) = N[C@H](Cc1ccc(Br)cc1)C(=O)O; dPhe(4-Cl) = N[C@H](Cc1ccc(Cl)cc1)C(=O)O; dPhe(4-F) = N[C@H](Cc1ccc(F)cc1)C(=O)O; Suc = O=C(CCC(=O)[*:2])[*:1]
# Test system: mature female rats
# Experiment: Antiovulatory activity (blockade of ovulation) in proestrus female rats, test of de la Cruz et al.
# Format: in vivo, rat
# Conditions: 12 noon of proestrus
# Experimental: The analogs are administered in 20% propylene glycol in physiologic saline (see Table I) or as a suspension in corn oil (see Table II) at 12 noon of the day of proestrus. On the following day, the rats are sacrificed, their fallopian tubes and uteri flushed with saline and the washed examined for ova.
# The test results for several analogs are given in Table I. In Table II, a comparison, between the compound of formula I in which X is acetyl, R^1 is D-Phe, R^2 is D-p-Cl-Phe, R^3 is D-Trp, R^4 is D-Trp and R^5 is Gly, the title compound of Example 7, and the compound of the prior art, [Ac-D-Phe^1, D-Phe^2, D-Trp^3,6 ]-LH-RH, noted hereinbefore, is shown. As noted above, a different carrier is used for administering the compounds in Table I than in Table II.
# [1] = Table I, dose 0.25 mg, in 20% propylene glycol in physiologic saline, ova examined the following day
# [2] = Table I, dose 0.062 mg, in 20% propylene glycol in physiologic saline
# [3] = Table I, dose 0.125 mg, in 20% propylene glycol in physiologic saline
# [4] = Table I, dose 0.015 mg, in 20% propylene glycol in physiologic saline
smiles,measurement,setting,value
CC(C)C[C@H](NC(=O)[C@@H](Cc1ccccc1)NC(=O)[C@H](Cc1ccc(O)cc1)NC(=O)[C@H](CO)NC(=O)[C@@H](Cc1c[nH]c2ccccc12)NC(=O)[C@@H](Cc1ccc(F)cc1)NC(=O)[C@H](N)Cc1ccccc1)C(=O)N[C@@H](CCCNC(=N)N)C(=O)N1CCC[C@H]1C(=O)NCC(N)=O [D-Phenylalanyl-D-p-fluorophenylalanyl-D-tryptophyl-L-seryl-L-tyrosyl-D-phenylalanyl-L-leucyl-L-arginyl-L-prolyl-glycinamide] (H-[dF][dPhe(4-F)][dW]SY[dF]LRPG-NH2),% Blockade of Ovulation,[1],10%
"CC(=O)N[C@H](Cc1ccccc1)C(=O)N[C@H](Cc1ccc(Cl)cc1)C(=O)N[C@H](Cc1c[nH]c2ccccc12)C(=O)N[C@@H](CO)C(=O)N[C@@H](Cc1ccc(O)cc1)C(=O)N[C@H](Cc1c[nH]c2ccccc12)C(=O)N[C@@H](CC(C)C)C(=O)N[C@@H](CCCNC(=N)N)C(=O)N1CCC[C@H]1C(=O)NCC(N)=O [Example 7, N-Acetyl-D-phenylalanyl-D-p-chlorophenylalanyl-D-tryptophyl-L-seryl-L-tyrosyl-D-tryptophyl-L-leucyl-L-arginyl-L-prolyl-glycinamide] (Ac-[dF][dPhe(4-Cl)][dW]SY[dW]LRPG-NH2)",% Blockade of Ovulation,"Table I, dose 0.031 mg, in 20% propylene glycol in physiologic saline",64%
same,% Blockade of Ovulation,[2],100%
same,% Blockade of Ovulation,"Table II, dose 15 mcg, suspension in corn oil",100%
same,% Blockade of Ovulation,"Table II, dose 31 mcg, suspension in corn oil",100%
"CC(C)C[C@H](NC(=O)[C@@H](Cc1ccccc1)NC(=O)[C@H](Cc1ccc(O)cc1)NC(=O)[C@H](CO)NC(=O)[C@@H](Cc1c[nH]c2ccccc12)NC(=O)[C@@H](Cc1ccc(Br)cc1)NC(=O)[C@H](N)Cc1ccccc1)C(=O)N[C@@H](CCCNC(=N)N)C(=O)N1CCC[C@H]1C(=O)NCC(N)=O [Example 8, D-Phenylalanyl-D-p-bromophenylalanyl-D-tryptophyl-L-seryl-L-tyrosyl-D-phenylalanyl-L-leucyl-L-arginyl-L-prolyl-glycinamide] (H-[dF][dPhe(4-Br)][dW]SY[dF]LRPG-NH2)",% Blockade of Ovulation,[1],50%
"CC(C)C[C@H](NC(=O)[C@@H](Cc1ccccc1)NC(=O)[C@H](Cc1ccc(O)cc1)NC(=O)[C@H](CO)NC(=O)[C@@H](Cc1c[nH]c2ccccc12)NC(=O)[C@@H](Cc1ccc(Cl)cc1)NC(=O)[C@H](N)Cc1ccccc1)C(=O)N[C@@H](CCCNC(=N)N)C(=O)N1CCC[C@H]1C(=O)NCC(N)=O [Example 9, D-Phenylalanyl-D-p-chlorophenylalanyl-D-tryptophyl-L-seryl-L-tyrosyl-D-phenylalanyl-L-leucyl-L-arginyl-L-prolyl-glycinamide] (H-[dF][dPhe(4-Cl)][dW]SY[dF]LRPG-NH2)",% Blockade of Ovulation,[3],11%
same,% Blockade of Ovulation,[1],82%
"CC(C)C[C@H](NC(=O)[C@@H](Cc1ccccc1)NC(=O)[C@H](Cc1ccc(O)cc1)NC(=O)[C@H](CO)NC(=O)[C@@H](Cc1c[nH]c2ccccc12)NC(=O)[C@@H](Cc1ccc(Cl)cc1)NC(=O)[C@@H](Cc1ccccc1)NC(=O)CCC(=O)O)C(=O)N[C@@H](CCCNC(=N)N)C(=O)N1CCC[C@H]1C(=O)NCC(N)=O [Example 10, N-Succinyl-D-phenylalanyl-D-p-chlorophenylalanyl-D-tryptophyl-L-seryl-L-tyrosyl-D-phenylalanyl-L-leucyl-L-arginyl-l-prolyl-glycinamide] (Suc-[dF][dPhe(4-Cl)][dW]SY[dF]LRPG-NH2)",% Blockade of Ovulation,[2],50%
same,% Blockade of Ovulation,[3],80%
"CC(=O)N[C@H](Cc1ccc(Cl)cc1)C(=O)N[C@H](Cc1ccc(Cl)cc1)C(=O)N[C@H](Cc1c[nH]c2ccccc12)C(=O)N[C@@H](CO)C(=O)N[C@@H](Cc1ccc(O)cc1)C(=O)N[C@H](Cc1c[nH]c2ccccc12)C(=O)N[C@@H](CC(C)C)C(=O)N[C@@H](CCCNC(=N)N)C(=O)N1CCC[C@H]1C(=O)NCC(N)=O [Example 14, N-Acetyl-D-p-chlorophenylalanyl-D-p-chlorophenylalanyl-D-tryptophyl-L-seryl-L-tyrosyl-D-tryptophyl-L-leucyl-L-arginyl-L-prolyl-glycinamide] (Ac-[dPhe(4-Cl)][dPhe(4-Cl)][dW]SY[dW]LRPG-NH2)",% Blockade of Ovulation,[4],70%
"CC(=O)N[C@H](Cc1ccccc1)C(=O)N[C@H](Cc1ccc(Cl)cc1)C(=O)N[C@H](Cc1c[nH]c2ccccc12)C(=O)N[C@@H](CO)C(=O)N[C@@H](Cc1ccc(O)cc1)C(=O)N[C@H](Cc1c[nH]c2ccccc12)C(=O)N[C@@H](CC(C)C)C(=O)N[C@@H](CCCNC(=N)N)C(=O)N1CCC[C@H]1C(=O)N[C@H](C)C(N)=O [Example 16, N-Acetyl-D-phenylalanyl-D-p-chlorophenylalanyl-D-tryptophyl-L-seryl-L-tyrosyl-D-tryptophyl-L-leucyl-L-arginyl-L-prolyl-D-alaninamide] (Ac-[dF][dPhe(4-Cl)][dW]SY[dW]LRP[dA]-NH2)",% Blockade of Ovulation,[4],100%
"CC(=O)N[C@H](Cc1ccccc1)C(=O)N[C@H](Cc1ccccc1)C(=O)N[C@H](Cc1c[nH]c2ccccc12)C(=O)N[C@@H](CO)C(=O)N[C@@H](Cc1ccc(O)cc1)C(=O)N[C@H](Cc1c[nH]c2ccccc12)C(=O)N[C@@H](CC(C)C)C(=O)N[C@@H](CCCNC(=N)N)C(=O)N1CCC[C@H]1C(=O)NCC(N)=O [[Ac-D-Phe^1, D-Phe^2, D-Trp^3,6]-LH-RH, reference compound] (Ac-[dF][dF][dW]SY[dW]LRPG-NH2)",% Blockade of Ovulation,"Table II, dose 100 mcg, suspension in corn oil",40%
same,% Blockade of Ovulation,"Table II, dose 250 mcg, suspension in corn oil",100%
